We go through one compound from US12465615B2, “Aqueous solutions containing purines and pyrimidines and uses thereof” (UCB BIOSCIENCES, INC., priority 2021, dated 2025).

Common to all, as to type: physicochemical
A short description of data set [1]: Solubility of thymidine in aqueous liquids (300 mg in 3.0 mL, stirring, HPLC). An excerpt: The solubility of thymidine was investigated wherein the dissolving liquid was water, pH 3 buffered water, and deoxycytidine containing water. The deoxycytidine employed in the solubility studies is referred to as Form A deoxycytidine, e.g. as described in U.S. Patent Publication 2021/0054014, which is incorporated herein by reference. Form A deoxycytidine is characterized by an X-ray diffraction pattern comprising peaks at 8.4, 12.9, 14.2, 16.8, 18.4, 19.4, 28.4, 30.0, and 30.6 degrees two-theta (2θ) (+/−0.2). The X-ray diffraction pattern can be recorded using CuKα1 radiation.
(§1) The procedure involved adding 300 mg of the thymidine to 3.0 mL of liquid and stirring. The three liquids were water, water wherein 50 mg/mL of deoxycytidine had already been dissolved, and water buffered at about pH 3. The pH 3 buffered water was created by adding 821 mg of anhydrous citric acid and 213 mg of sodium citrate dehydrate to a 100 mL volumetric flask and adding water to the 100 mL mark while dissolving the solids. The deoxycytidine solution was created by adding 500 mg of deoxycytidine to a 10 mL volumetric flask and filling the flask with water while dissolving the solids, yielding a pH of 8.23 and a deoxycytidine concentration of about 50 mg/mL.
(§2) The liquids were stirred and samples were withdrawn at 5 mins, 10 mins, and 24 hours. At each time period 0.7 mL of the suspension was removed and subjected to filtration through a 0.45 μm PTFE filter, and 0.3 mL of the suspension was removed and centrifuged at 10,000 rpm for 2 minutes. The filtrate from the filtration and the supernatant from the centrifugation were subjected to high performance liquid chromatography (HPLC) to determine the amount of dissolved thymidine.
Solubilities are reported in mg/mL.

Data set [2] in a line: pH of thymidine suspensions after stirring. Here is the method:
as §1, §2
The pH of the suspensions were also recorded.

A short description of data set [3]: Reconstitution of thymidine in water with differing amounts of deoxycytidine (HPLC content after 2 minutes of mixing). The following applies: 6000 mg dT in 120 mL water. Here is the method: The solubility of thymidine in combination with different amounts of deoxycytidine was determined using HPLC and reconstitution methods as described below.
Each 50 mg/mL stock solution was prepared by adding 120 mL of purified water to a 400 mL beaker, stirring the water at 650 rpm, and then adding the amounts of thymidine and/or deoxycytidine as listed in the Table 3 below for each sample to form mixtures.
Each mixture was stirred at 650 rpm for about 1 minute, after which the stirring was reduced to 150 rpm and maintained at 150 rpm for about 1 minute. After about 2 minutes total, the mixture was filtered through a 0.45 μm syringe filter to obtain filtered stock solutions for each sample.
0.9 mg/mL intermediate solutions of each of the above samples were prepared by adding 1.0 mL of the respective filtered stock solution into a 50 mL volumetric flask and diluting to volume with a diluent (e.g., water) and mixing.
0.09 mg/mL working solutions of each of the above samples were prepared by adding 1.0 mL of the respective intermediate solution into a 10 mL volumetric flask and diluting to volume with a diluent (e.g., water) and mixing. The resulting mixture was transferred to an HPLC vial.
Working solutions for each of the above samples were subjected to HPLC analysis utilizing the conditions and parameters below and in Table 4. The data collected from the HPLC analysis was then used to calculate percent content of thymidine dissolved for each sample after 2 minutes of mixing. • Mobile Phase A: Purified Water (degassed by sonication) • […] (degassed by sonication)
[formula] • ASample=Peak area of dC or dT in the sample solution • WStd=Weight of dC or dT reference material [mg] • PurityStd=Purity of dC or dT reference material in %/100 • VSample=Dilution of sample solution corrected with dC or dT [mL] • LCFW=Correction factor of Label Claim and fill weight/0.4825 (2000 mg/4145 mg) • AStd=Mean peak area of dC or dT in the 6 injections of Std1 at beginning • WSample=Weight of sample (mg) • VStd=Dilution of standard solution [mL]/50 mL • 100=Conversion in % Results
The dC Level is the percentage of the mass of dC relative to dT. The dT Content is the percentage of dT in solution within 2 minutes of stirring in the presence of the indicated dC level.

The mark [4] stands for this setting: Water with 50 mg/mL of deoxycytidine, stirring 24 hrs.
Setting [5] is: pH 3 buffered water, stirring 10 mins.
Setting [6] is: pH 3 buffered water, stirring 24 hrs.

On to `Cc1cn([C@H]2C[C@H](O)[C@@H](CO)O2)c(=O)[nH]c1=O` [thymidine], for which the “thymidine solubility higher than the thymidine solubility in water” value in data set [1] (50 mg/mL deoxycytidine solution versus water, 5 minutes) is given as “about 38%”. In addition, the Dissolved thymidine was 65.62 mg/mL in data set [1] (setting [4]); 51.04 mg/mL in data set [1] (Water, stirring 24 hrs); 59.66 mg/mL in data set [1] (setting [5]); 52.04 mg/mL in data set [1] (setting [6]). In addition, the “thymidine solubility higher than in water” value in data set [1] (deoxycytidine liquid versus water, 10 minutes) was “about 58%”. Besides, the pH of suspensions in data set [2] (Water with 50 mg/mL of deoxycytidine, stirring 5 mins) is recorded as 7.3; in data set [2] (Water with 50 mg/mL of deoxycytidine, stirring 10 mins), 7.1; in data set [2] (setting [4]), 7.3; in data set [2] (Water, stirring 5 mins) it was 7.3; in data set [2] (Water, stirring 10 mins), 7.3; in data set [2] (Water, stirring 24 hrs), 7.3. Also, the pH of suspensions in data set [2] (pH 3 buffered water, stirring 5 mins) came to 3.2; in data set [2] (setting [5]) it was 3.1; in data set [2] (setting [6]), 3.1. Moreover, the “dT Content (percentage of dT in solution within 2 minutes of stirring)” value in data set [3] (dC Level 0 % (mass of dC relative to dT)) is 89.09%; in data set [3] (dC Level 10 %) it was 93.39%; in data set [3] (dC Level 20 %), 92.69%; in data set [3] (dC Level 40 %), 95.68%; in data set [3] (dC Level 80 %) it was 96.78%; in data set [3] (dC Level 100 %), 95.91%.
